From patent US20100129515A1, “FLAVOUR MODULATING SUBSTANCES” (QUEST INTERNATIONAL SERVICES B.V., priority 2005, published 2010)

Experiments:
[1] = Tasting of 0.6% NaCl / 0.03% MSG solutions by professional panel (Examples 9 and 10); type: in vivo
Method: Three solutions of 0.6% NaCl and 0.03% MSG were prepared.
To a first solution (sample A), 0.1 ppm N-vanillyl-N′-octyl urea was added To a second solution (sample B) 0.2 ppm N-vanillyl-N′-octyl thiourea was added.
(§1) Samples A and B and the reference sample were tasted by a professional panel.
To a first solution (sample A), 5 ppm N-vanillyl-N′-octyl urea was added To a second solution (sample B), 10 ppm N-vanillyl-N′-octyl thiourea was added.

[2] = Tasting of 0.6% NaCl / 0.03% MSG / 4 ppm pepper oleoresin solutions by professional panel (Example 11); type: in vivo
Method: Three solutions of 0.6% NaCl and 0.03% MSG and 4 ppm pepper oleoresin (ex Warner Jenkinson, St Louis, USA) were prepared.
To a first solution (sample A), 1 ppm N-vanillyl-N′-octyl urea was added To a second solution (sample B), 2 ppm N-vanillyl-N′-octyl thiourea was added.
as §1

[3] = Tasting of fondant with 2500 ppm menthol by professional panel (Example 8); type: in vivo
Method: Three samples of fondant were prepared by mixing 65% Fondacreme (ex Belgosuc NV Belgium) with 35% sugar syrup (67° Brix). 2500 Ppm menthol was added as a 50% solution in propylene glycol.
To a first sample (sample A), 0.1 ppm N-vanillyl-N′-octyl urea was added To a second sample (sample B), 0.2 ppm N-vanillyl-N′-octyl thiourea was added. Samples A, B and the reference sample were tasted by a professional panel. […] The cooling was perceived more through the whole oral cavity.

[4] = cited from earlier work; for pungency: compared with capsaicin; for taste: as a dry powder and as an alcoholic or aqueous solution
[5] = Tasting of toothpaste by professional panel (Example 13); type: in vivo
Method: 97 g of a toothpaste base was prepared as follows: 13.8 ml demineralised water, 0.1 g trisodium phosphate (12H2O) and 0.8 g sodium monofluorophosphate were weighed and mixed until clear. 50.0 g of sorbitol was added and the blend was mixed again. The obtained mixture was placed in a Fryma pot. A poly bag was placed in a suitable container and 8.0 g of precipitated silica AC30, 9.0 g of precipitated silica TC15, 0.8 g of sodium carboxymethylcellulose (SCMC 9M31XF) and 1.0 g of a colorant (Tiona (1700)) were weighed and placed in the bag in the order listed. The top of the bag was secured with a tag and the contents were thoroughly mixed to distribute the gum throughout the mixture.
This mixture was added to the Fryma pot. Then 7.0 ml of demineralised water, 1.5 g of sodium lauryl sulphate (Empicol LXV100C) and 5.0 g of PEG 1500 were placed in a beaker and heated to 45° C. and mixed with a Turrax to disperse the ingredients. The dispersion was placed on a magnetic stirrer until clear (while covered with cling film) and was subsequently added to the Fryma pot.
To this base toothpaste 0.8 g of a 25% saccharin soln was added. Part of the base toothpaste was then intensively mixed with N-vanillyl-N′-octyl urea (as obtained in Example 4) to obtain a 0.1 ppm concentration of N-vanillyl-N′-octyl urea (sample A). […]

[6] = Taste of solutions in water (Example 7); type: in vivo
[7] = Tasting of 10 ppm menthol solution by trained flavourist panel (Example 4); type: in vivo; conditions: 1 ppm added to 10 ppm menthol solution; compared to the base
Method: 1 ppm N-vanillyl urea as described in example 1 was added to a 10 ppm menthol solution and compared to the base. Both solutions were tasted by a trained flavourist panel, which described the solutions as follows: […]

[8] = Tasting of 0.6% sodium chloride / 0.03% mono sodium glutamate solution by trained flavourist panel (Example 3); type: in vivo; conditions: 10 ppm in 0.6% sodium chloride, compared with solution A without substance
Method: 2 solutions were prepared containing respectively:
0.03% mono sodium glutamate
10 ppm N-vanillyl urea as described in example 1
Both solutions were tasted by a trained flavourist panel, which described the solutions as follows: […]

[9] = Tasting of 5% (w/w) ethanol solutions by trained flavourist panel (Example 2); type: in vivo; conditions: reference 5% (w/w) alcoholic solution
Method: The solid product obtained in example 1 was dissolved in ethanol/water (1:1, w/w) to prepare a 1000 ppm stock solution.
The following 3 alcoholic solutions are prepared: A: 1 ppm N-vanillyl urea as obtained in example 1
B: 10 ppm N-vanillyl urea as obtained in example 1
C: 100 ppm N-vanillyl urea as obtained in example 1
All solutions were tasted by a trained flavourist panel and compared to a 5% (w/w) alcoholic solution (the reference).

For `CCCCCCCCNC(=S)NCc1ccc(O)c(OC)c1` [N-vanillyl-N′-octyl thiourea], the “salt effects compared to the reference sample” value ([1]; 0.2 ppm in 0.6% NaCl, relative to sample A) was “the same effects but slightly weaker”, the “salt and hotness effects compared to the reference sample” value ([1]; 10 ppm in 0.6% NaCl, relative to sample A) was “the same effects but slightly weaker” and the “hotness and overall impression compared to the reference sample” value ([2]; 2 ppm in 0.6% NaCl, relative to sample A) was “the same effects but slightly weaker”. The “cooling effect compared to the reference sample” value ([3]; 0.2 ppm in fondant with 2500 ppm menthol, relative to sample A) was “the same effects but slightly weaker”.
In the case of `COc1cc(CNC(=S)Nc2ccc(C)cc2)ccc1O` [p-tolylvanillyithiourea], the pungency [4] is listed as “property of pungency but to a lesser degree than capsaicin”.
In the case of phenylvanillylthiourea, the taste [4] is listed as “tasteless” and the pungency [4] is listed as “property of pungency but to a lesser degree than capsaicin”.
In the case of `CCNC(=O)C1CC(C)CCC1C(C)C` (stereo not drawn) [WS-3, reference compound], the “cooling effect compared with the base toothpaste” value ([5]; 10 ppm in toothpaste) is reported as “in between sample A and the base in cooling strength”.
For `COc1cc(CNC(N)=S)ccc1O` [N-vanillyl thiourea], the taste [4] is given as “tasteless” and the “taste of solution in water” value ([6]; 25 ppm in water) is given as “tingling, burning and slightly bitter taste and a weak vanillin-like flavour sensation”.
In the case of `COc1cc(CNC(N)=O)ccc1O` [N-vanillyl urea], the taste [4] is given as “tasteless”, the taste description [7] is given as “powerful and full cooling sensation, preferred to the base” and the taste description [8] is given as “more salty, umami, warm, bite, preferred to A”. The “taste of solution in water” value ([6]; 50 ppm in water) was “slightly tingling taste and a weak vanillin-like flavour sensation”, the “taste compared to the reference” value ([9]; 1 ppm in 5% (w/w) ethanol) was “more alcohol-like bite than the reference” and the “taste compared to the reference” value ([9]; 10 ppm in 5% (w/w) ethanol) was “stronger hot, sharp and pungent, ethanol-like taste compared to the reference solution”. The “taste compared to the reference” value ([9]; 100 ppm in 5% (w/w) ethanol) was “stronger hot, sharp and pungent, ethanol-like taste compared to the reference solution”.
With `CCCCCCCCNC(=O)NCc1ccc(O)c(OC)c1` [N-vanillyl-N′-octyl urea, N-octyl-N′-vanillyl urea] the “onset of salt impression compared to the reference” value ([1]; 0.1 ppm in 0.6% NaCl) was “came faster than in the reference”, the “saltiness compared to the reference sample” value ([1]; 0.1 ppm in 0.6% NaCl) was “more salty compared to the reference sample” and the duration of hotness ([1]; 5 ppm in 0.6% NaCl) was “up to 10 minutes”. For the same compound, the “onset of salt impression compared to the reference sample” value ([1]; 5 ppm in 0.6% NaCl) was “came faster than in the reference sample”, the “saltiness and hotness compared to the reference sample” value ([1]; 5 ppm in 0.6% NaCl) was “more salty and had a ‘clean’ and long lasting (up to 10 minutes) hotness compared to the reference sample” and the “hotness and overall impression compared to the reference sample” value ([2]; 1 ppm in 0.6% NaCl) was “clearly more hot than the reference sample and the overall impression is much stronger”. For the same compound, the “cooling effect compared with the base toothpaste” value ([5]; 0.1 ppm in toothpaste) was “more aggressive cooling and more cooling volume in the oral cavity than the base”, the “taste of solution in water” value ([6]; 1 ppm in water) was “strong tingling and burning taste” and the “cooling effect compared to the reference sample” value ([3]; 0.1 ppm in fondant with 2500 ppm menthol) was “more intense and long-lasting cooling effect compared to the reference sample”.
In the case of o-tolylvanillylthiourea, the pungency [4] is given as “property of pungency but to a lesser degree than capsaicin”.
